In patent publication US20260256793A1, “ALTERATION OF F-BOX AND WD REPEAT DOMAIN CONTAINING 7 (FBXW7) GENE AS A PREDICTIVE BIOMARKER FOR TREATING CANCER WITH WEE1 INHIBITORS” (Zeno Management, Inc., priority 2023, published 2026):

Experiments:
[1] = system: Parental DLD-1 colorectal cancer cells; assay: Western blot (Jess) of WEE1, pCDK1, replication stress, DNA damage and apoptosis markers after Azenosertib treatment, parental cells; assay type: cell-based
Procedure: (§1) FIG. 8 is a Western Blot image showing levels of FBXW7, WEE1 kinase, Cyclin E1, and other replication stress, DNA damage, apoptosis markers in DLD-1 parental and DLD-1 FBXW7-knockout colorectal cancer cells treated with DMSO (negative control) and 250 nM, 1 μM, and 10 µM of Azenosertib for 8 hours, 24 hours, or 48 hours.
(§2) Parental DLD-1 colorectal cancer cells or FBXW7 knockout (FBXW7-KO) DLD-1 cells (Creative Biogene, Cat No. CSC-RT0018, Lot No. 081723ZYX) were cultured in RPMI 1640 medium (ATCC modification) (Giboco) supplemented with 10% FBS (Gibco) and 1% penicillin-streptomycin (Gibco). Cells were maintained at 37° C. in an atmosphere containing 5% CO2.
(§3) The cultured cells were seeded at optimal density in 6-well plates, allowed to adhere overnight, and then treated with Azenosertib (250 nM, 1 μM, or 10 μM), with DMSO treatment as a negative control. After 8, 24, and 48 hours of drug exposure, cells were harvested, rinsed with PBS, lysed with cold RIPA buffer (Sigma) containing protease and phosphatase inhibitors for 15 minutes, and centrifuged at 4° C., 15,000 rpm for 15 minutes. Protein concentrations were measured using the Pierce BCA Protein Assay kit (Thermo Fisher). Jess™ plates were loaded and run according to the manufacturer's instructions (Bio-Techne). Primary antibodies anti-FBXW7 and anti-Cyclin E1 were purchased from Abcam, anti-phospho-H3, anti-Vinculin, anti-γH2AX, anti-phospho-CDK1, anti-phsopho-Chk1, anti-cleaved caspase 3, anti-Wee1, and anti-CDK1 were purchased from Cell Signaling Technology.

[2] = system: FBXW7 knockout (FBXW7-KO) DLD-1 cells; assay: Western blot (Jess) of WEE1, pCDK1, replication stress, DNA damage and apoptosis markers after Azenosertib treatment, FBXW7 knockout cells; assay type: cell-based
Procedure: as §1, §2, §3

[3] = system: solid tumor patients (HGSOC, USC, endometrial, colorectal, peritoneum cancer), FBXW7-mutated or wild-type; assay: Clinical outcome of Azenosertib monotherapy by FBXW7 mutational status (composite cohort of 356 patients); assay type: in vivo, human; conditions: daily dose at least 300 mg; for Objective Response Rate (ORR): continuous or intermittent schedule, p<0.02, FIG. 9A; for target lesion size reduction (median): p<0.05, FIG. 9B
Procedure: FIG. 9B is a waterfall plot of the tumor size change in FBXW7-mutated or wild-type human subjects.
The predictive value of FBXW7 was investigated in a composite cohort of 356 patients treated with a daily dose of at least 300 mg of Azenosertib monotherapy on a continuous dosing schedule or an intermittent dosing schedule (e.g., 5 days on/2 days off, 4 days on/3 days off) and profiled with high-throughput DNA sequencing. Specifically, this composite cohort of patients was treated with a daily dose of 300 mg, or 350 mg, or 400 mg, or 450 mg of Azenosertib monotherapy on a continuous dosing schedule (i.e., QD, 7 days a week without any intermission), a daily dose of 300 mg, or 350 mg, or 400 mg, or 450 mg, or of 500 mg of Azenosertib monotherapy on an intermittent 5 days on/2 days off or 4 days on/3 days off schedule). The source of mutational status was a combination of local (reports from clinical sites) or central testing from either tumor or cell-free DNA. The mutational status was determined as mutated when at least one of the reports reported a pathogenic mutation and unmutated (wild-type) when all reports covering the FBXW7 gene were negative. The cohort investigated consists of patients diagnosed with high-grade serous ovarian carcinoma or HGSOC (N=211), uterine serous carcinoma or USC (N=57) or other solid tumor cancers including endometrial cancer, colorectal cancer, and peritoneum cancer […]. The patients mutated for FBXW7 (N=17-including […], 7 USC, 2 endometrial and 3 colorectal), were more likely to respond to Azenosertib monotherapy (Objective Response Rate or ORR=41% (7/17) for FBXW7-mutated patients vs. 16% (53/339) for FBXW7-wild-type patients; p<0.02—FIG. 9A [BOR=Best Overall Response; CR=Complete Response; PR—Partial Response; uPR=Unconfirmed Partial Response; SD=Stable Disease; PD=Progressive Disease).

[4] = 250 nM, 1 μM, 10 μM, 8, 24, 48 hours, vs DMSO, FIG. 8
[5] = FBXW7-KO DLD-1, 250 nM, 1 μM, 10 μM, 8, 24, 48 hours, vs DMSO, FIG. 8
[6] = FBXW7-KO DLD-1, 10 μM, more significant DNA damage compared to parental cell line

C=CCn1c(=O)c2cnc(Nc3ccc(N4CCN(C)CC4)cc3)nc2n1-c1ccc2c(n1)[C@@](O)(CC)CC2 [Azenosertib]
WEE1 levels [1, 4]: dose-dependent decrease
phospho-CDK1 (pCDK1) levels [1, 4]: dose-dependent decrease
pCDK1 level ([1]; 10 μM, 48 hours): decreasing significantly
WEE1 levels [2, 5]: dose-dependent decrease
phospho-CDK1 (pCDK1) levels [2, 5]: dose-dependent decrease
pCDK1 level ([2]; FBXW7-KO DLD-1, 10 μM, 48 hours): decreasing significantly
gamma-H2AX (γH2AX) levels (DNA damage) [2, 6]: increase
phospho-Chk1 (pChk1) levels (DNA damage) [2, 6]: increase
cleaved caspase 3 levels (apoptosis) ([2]; FBXW7-KO DLD-1, e.g. 10 µM at 24 hours and 48 hours, compared to parental cell line): increase
sensitivity to treatment with Azenosertib ([2]; FBXW7-KO cells compared to the parental cell line): more sensitive
Objective Response Rate (ORR) ([3]; FBXW7-mutated patients (7/17)): 41%
target lesion size reduction (median) ([3]; FBXW7-mutated patients): −41%
Objective Response Rate (ORR) ([3]; FBXW7-wild-type patients (53/339)): 16%
target lesion size reduction (median) ([3]; second-named group, FBXW7-wild-type patients): −8%
